Non-standard residues stand in square brackets, D forms with d. No end group written: not given here. *: point of attachment. FITC = O=C1OC2(c3ccc(O)cc3Oc3cc(O)ccc32)c2ccc(NC(=S)*)cc21; Ahx = NCCCCCC(=O)O
Assays:
[1] = system: HT-1080 cells; experiment: Test of inducing cell-death in vitro (Calcein-AM/PI dead cell rate); type: cell-based, human; conditions: for increase in the dead cell rate: day 21
Description: Human fibrosarcoma-derived HT-1080 cells (HT-1080 cells, JCRB cell bank) were used as cancer cells in the test for monitoring changes in mitochondrial membrane potential. HT-1080 cells, human osteosarcoma cell line Hos cells (Hos cells, JCRB cell bank), human histiocytic lymphoma/macrophage U937 cells (U937 cells, JCRB cell bank), human myeloid leukemia HL-60 cells (HL-60 cells, JCRB cell bank), acute monocytic leukemia THP-1 cells (THP-1 cells, JCRB cell bank), human alveolar basal epithelial adenocarcinoma cell A549 cells (A549 cells, Cell Resource Center for Biomedical Research, Institute of Development, Aging and Cancer, Tohoku University), human pancreatic carcinoma cells (MIA Paca 2 cells, Cell Resource Center for Biomedical Research, Institute of Development, Aging and Cancer, Tohoku University) and well differentiated human liver carcinoma-derived cell line HuH7 cells (HuH7 cells, Cell Resource Center for Biomedical Research, Institute of Development, Aging and Cancer, Tohoku University) were used as cancer cells in an in vitro cell-death induction test of cancer cells and a nuclear transport test of Example 2. Normal human gingival fibroblast cells Gin-1 (Gin-1 cells, DS Pharma Biomedical) were used as a control. The above-described cells were each inoculated into a 96-well culture plate (Falcon) at 5,000 cells/[…] and subjected to the following tests.
The peptide of SEQ ID NO: 1 labeled with FITC (Example 2) was used for the test of inducing cell-death in vitro in cancer cells. It was prepared the test example to which 100 μL of Example 2 and further 10% FBS were added and cultured for 9 days under conditions of 200 μL of serum-supplemented medium (Alpha modification of Eagle's MEM (α-MEM) (Thermo Fisher Scientific)+10% FBS). Furthermore, it was also produced the test example that was cultured for 21 days with the whole amount of Example 2-supplemented medium replaced every 7 days. As a control, the cells were cultured in a serum-supplemented medium (α-MEM+10% FBS) without addition and were used. A supernatant was removed after the completion of the culture. The cells were washed once with PBS and stained in PBS to which a fluorescent dye for living cell staining Calcein-AM (DOJINDO LABORATORIES) (final concentration: 0.1 μg/mL) and a fluorescent dye for dead cell staining Propidium Iodide (PI) (DOJINDO LABORATORIES) (final concentration: 0.3 μg/mL) were added, at 37° C. in a 5% CO2 cell incubator for 30 minutes. The living cells and dead cells were separately stained with Calcein-AM and PI, respectively and imaged with the confocal laser scanning microscope LSM800. Next, the dead cell rate relative to the number of total cells was analyzed using ImageJ.
The results are represented by the average value of the dead cell rate (the number red cells stained with IP/the number of total cells×100(%))±standard deviation (SD). In FIG. 2A, the vertical axis represents the rate of cell death when each cell was cultured with Example 2 (50 μg/mL) for 9 days and the horizontal axis represents various types of cells. The increase in the dead cell rate of the Gin-1 cells was not observed.
The concentrations of Examples 2 and 4 to 6 were adjusted to 12.5, 25, 50 and 100 μg/mL, respectively and then administrated to the HT-1080 cells for 9 days tested by the same method as in Test Example 2A. The cell staining and subsequent analyses of the dead cell rate relative to the number of total cells were performed in the same manner as Test Example 2A.

[2] = system: cytoplasm and nuclear protein of HT-1080 cells; experiment: Analytical test of cytoplasm and nuclear protein bound by Example 2 (immunoprecipitation, shotgun analysis); type: binding, human; conditions: 50 μg/mL, 5 days
Method: The HT-1080 cells (20 million cells) were cultured in 4 mL of serum-supplemented medium (α-MEM+10% FBS) to be 50 μg/mL at the final concentration of Example 2 for 5 days at 37° C. and 5% CO2 in the cell incubator. The cells were washed with PBS and collected. The protein was individually harvested from the cytoplasm and the nucleus using NE-PER Nuclear and Cytoplasmic Extraction Reagents (PIERCE). 80 μL of A/G agarose was added to 1 mg of each protein from the cytoplasm and the nucleus and stirred at 4° C. for 1 hour, the samples were pretreated. 10 μg of IgG Fraction Monoclonal Mouse Anti-Fluorescein (FITC) (Jackson ImmunoResearch) was added to the pretreated solution (1 mg/600 μL) and shaken at 4° C. overnight. Subsequently, 20 μL of A/G agarose was added to the mixtures and shaken at 4° C. for 2 hours. After the mixtures were washed three times with a wash buffer, 50 μL of elution buffer (Thermo Fisher Scientific) was added to the A/G agarose. […]
Proteins were identified from the cytoplasm or nucleus and listed with the accession number, protein name, identified number of detected peptides, identified number of unique peptides, confidence score and amount of cytoplasmic protein or nuclear protein(fmol), except for the antibodies used in immunoprecipitation and Example 2 from the detected proteins.

How did the “increase in the dead cell rate” value ([1]; 6.25 μg/mL) turn out when “Example 2: peptide of SEQ ID NO: 1 labeled with FITC, bound via an Ahx linker at the N-terminus ({FITC}-[Ahx]KDNRGNLLQCVCTGNGRGEWKC; cysteine pairing not given here)” was run?
The value was at least 75%.

And the “increase in the dead cell rate” value ([1]; 12.5 μg/mL)?
The value was at least 75%.

What about the “increase in the dead cell rate” value ([1]; 25 μg/mL) of the same substance?
The value was at least 95%.

What about the “increase in the dead cell rate vs control” value ([1]; 50 μg/mL, 9 days) of the same substance?
The value was “significant difference at the level of 1%”.

And the “increase in the dead cell rate” value ([1]; 50 μg/mL)?
Its value is at least 95%.

What about the “increase in the dead cell rate” value ([1]; 100 μg/mL) of the same substance?
Its value is at least 95%.

And the “nuclear transfer proved biochemically” value [2]?
Its value is “transfer to the inside of the nucleus”.

And the “proteins bound (identified from cytoplasm or nucleus)” value [2]?
Its value is “linker histones H1-3, core histones (H2A, H2B, H3-2 and H4), 22 types of 40S ribosomal proteins and 28 types of 60S ribosomal proteins”.
